Where “and” joins values, the source holds several entries; their conditions need not be identical. Equal values may be shown once. Where only a bound is given, the exact number is not on record here.

The nature of the assay: Anticancer human tumor 997537-175-T-J1-PDC patient-derived colon adenocarcinoma cell line growth inhibition [POLQ]. Particulars: 997537-175-T-J1-PDC complex spheroid viability, combination with POLQ inhibitors; for viability, T/C: stronger effect = lower value; for IC50: curve of compound. In short, it runs like this: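 PDC + HUVEC + MSC complex spheroids; POLQ inhibitors ± partner drugs; top conc. at/near clinical Cmax, else 10 microM (SN-38 1 microM), half-log dilutions; 37 degrees C, 5% CO2.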
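Note: luminescence signal used as a surrogate for viable cells; spheroids exposed to drugs for seven days before readout.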

Consider `CNCc1ccc(-c2[nH]c3cc(F)cc4c3c2CCNC4=O)cc1`, for which the IC50 is over 10000 nM. For the setting “compound 0.0316 µM”, the viability, T/C was 90.4% and 94.4% and 96.8%. For the same compound, the viability, T/C (compound 0.1 µM) was 96.6% and 93.5% and 90.8%. The viability, T/C (compound 0.316 µM) is 91% and 108% and 106%. Also, under “compound 1 µM”, the viability, T/C was 98.3% and 93.2% and 88.9%. Further, for the setting “compound 3.16 µM”, the viability, T/C was 100% and 103% and 99.9%. Where the note is “compound 10 µM”, the viability, T/C was 95% and 98.8% and 89.1%.

As to `COc1cc2cc(C(=O)CCC(=O)O)sc2cc1OC`, the IC50 was over 10000 nM. The viability, T/C (compound 0.0316 µM) was 102% and 105% and 95.7%. In addition, the viability, T/C (compound 0.1 µM) was 99% and 93.1% and 94.9%. Also, the viability, T/C (compound 0.316 µM) was 85.6% and 113% and 104%. Moreover, the viability, T/C (compound 1 µM) is 107% and 89.6% and 100%. The viability, T/C (compound 3.16 µM) was 106% and 100% and 91.6%. The viability, T/C (compound 10 µM) is 98.2% and 83.3% and 99.8%.

`Cn1ncnc1[C@H]1c2n[nH]c(=O)c3cc(F)cc(c23)N[C@@H]1c1ccc(F)cc1`: the IC50 was over 100 nM. Also, where the note is “compound 0.000316 µM”, the viability, T/C is 93.6% and 104% and 95.7%. The viability, T/C (compound 0.001 µM) is 114% and 96.4% and 80.4%. The viability, T/C (compound 0.00316 µM) is 80.6% and 115% and 106%. In addition, the viability, T/C (compound 0.01 µM) is 110% and 98.3% and 88.3%. For the same compound, the viability, T/C (compound 0.0316 µM) is 104% and 106% and 100%. Also, where the note is “compound 0.1 µM”, the viability, T/C was 94.7% and 98.2% and 90%.

`COc1cc(C2c3cc4c(cc3C(OC3OC5COC(C)OC5C(O)C3O)C3COC(=O)C23)OCO4)cc(OC)c1O` (stereo unspecified): the IC50 is over 10000 nM. The viability, T/C (compound 0.0316 µM) was 81.2% and 92.1% and 89.8%. Besides, the viability, T/C (compound 0.1 µM) was 90% and 102% and 100%. Moreover, for the setting “compound 0.316 µM”, the viability, T/C is 86.5% and 100% and 114%. Besides, the viability, T/C (compound 1 µM) was 102% and 92.9% and 99.7%. Moreover, the viability, T/C (compound 3.16 µM) was 92.7% and 81% and 88.9%. Where the note is “compound 10 µM”, the viability, T/C was 76.3% and 68.8% and 51.7%.

Regarding `CCc1c2c(nc3ccc(O)cc13)-c1cc3c(c(=O)n1C2)COC(=O)[C@]3(O)CC`, the IC50 was 17.2 nM and 19.9 nM and 18.4 nM. The viability, T/C (compound 0.00316 µM) is 68.9% and 81% and 97.3%. Also, the viability, T/C (compound 0.01 µM) was 63.4% and 64.7% and 67%. Further, for the setting “compound 0.0316 µM”, the viability, T/C was 35.3% and 40.2% and 35.2%. In addition, the viability, T/C (compound 0.1 µM) was 19.1% and 17.6% and 15.7%. For the same compound, for the setting “compound 0.316 µM”, the viability, T/C is 5.98% and 6.37% and 8.27%. Further, the viability, T/C (compound 1 µM) is 5.57% and 4.62% and 6.01%.

On to `CC[C@@]1(O)C(=O)OCc2c1cc1n(c2=O)Cc2cc3c(CN(C)C)c(O)ccc3nc2-1`, for which the IC50 is over 100 nM. The viability, T/C (compound 0.000316 µM) is 100% and 93.8% and 93.3%. In addition, the viability, T/C (compound 0.001 µM) was 96.1% and 102% and 112%. For the same compound, the viability, T/C (compound 0.00316 µM) was 98.1% and 91.1% and 111%. The viability, T/C (compound 0.01 µM) is 105% and 101% and 97.3%. In addition, under “compound 0.0316 µM”, the viability, T/C was 94.5% and 75.5% and 93%. Besides, the viability, T/C (compound 0.1 µM) is 71.6% and 61.9% (2×).

On to `O=C(Nc1ccc(O)c(NS(=O)(=O)c2ccc(F)cc2)c1)c1ccc(-c2ccccc2)cc1`, for which the IC50 was over 10000 nM. The viability, T/C (compound 0.0316 µM) is 103% and 89.4% and 123%. Moreover, the viability, T/C (compound 0.1 µM) is 101% and 92.4% and 98.4%. For the same compound, the viability, T/C (compound 0.316 µM) was 113% and 97.4% and 81.8%. In addition, the viability, T/C (compound 1 µM) was 88.3% and 109% and 103%. In addition, where the note is “compound 3.16 µM”, the viability, T/C was 99.2% and 116% and 91.7%. Also, the viability, T/C (compound 10 µM) was 98.9% and 103% and 91.2%.

For `CC1COCCN1c1cc(C2(S(C)(=N)=O)CC2)nc(-c2ccnc3[nH]ccc23)n1` (stereo unspecified), the IC50 is 9980 nM and > 10000 nM. Further, the viability, T/C (compound 0.0316 µM) is 92.8% and 97.8% and 110%. Further, under “compound 0.1 µM”, the viability, T/C is 99.5% and 101% and 102%. Moreover, the viability, T/C (compound 0.316 µM) is 101% and 84.7% and 82.3%. Further, for the setting “compound 1 µM”, the viability, T/C was 91.7% and 86.5% and 92.7%. For the same compound, the viability, T/C (compound 3.16 µM) is 66% and 59.8% and 74.8%. The viability, T/C (compound 10 µM) is 49.9% and 58.9% and 53.6%.

One may read the viability, T/C as the ratio of treated to control. One may read the IC50 as the point on the concentration scale where inhibition reaches its midpoint.

Source of the values: PubChem BioAssay AID1963825 (Molecular Pharmacology Branch, DTP, NCI, 2024).
